# Test results as given in patent publication US10179770B2, “Quinolines derivatives as novel anticancer agents” (GENOSCIENCE PHARMA, priority 2013, dated 2019).
# Tests used:
# Experiment in all cases: NCI-60 screen (SRB)
# Assay type in all cases: cell-based
# SNB-75 = SNB-75 (CNS)
# Procedure: (§1) The human tumor cell lines of the cancer screening panel are grown in RPMI 1640 medium containing 5% fetal bovine serum and 2 mM L-glutamine. For a typical screening experiment, cells are inoculated into 96 well microtiter plates in 100 μL at plating densities ranging from 5,000 to 40,000 cells/well depending on the doubling time of individual cell lines. After cell inoculation, the microtiter plates are incubated at 37° C., 5% CO2, 95% air and 100% relative humidity for 24 h prior to addition of experimental drugs.
# (§2) After 24 h, two plates of each cell line are fixed in situ with TCA, to represent a measurement of the cell population for each cell line at the time of drug addition (Tz). Experimental drug is solubilized in dimethyl sulfoxide at 400-fold the desired final maximum test concentration and stored frozen prior to use. At the time of drug addition, an aliquot of frozen concentrate is thawed and diluted to twice the desired final maximum test concentration with complete medium containing 50 μg/ml gentamicin. Additional four, 10-fold or ½ log serial dilutions are made to provide a total of five drug concentrations plus control. Aliquots of 100 μl of these different drug dilutions are added to the appropriate microtiter wells already containing 100 μl of medium, resulting in the required final drug concentrations.
# (§3) Following drug addition, the plates are incubated for an additional 48 h at 37° C., 5% CO2, 95% air, and 100% relative humidity. For adherent cells, the assay is terminated by the addition of cold TCA. Cells are fixed in situ by the gentle addition of 50 μl of cold 50% (w/v) TCA (final concentration, 10% TCA) and incubated for 60 minutes at 4° C. The supernatant is discarded, and the plates are washed five times with tap water and air dried. Sulforhodamine B (SRB) solution (100 μl) at 0.4% (w/v) in 1% acetic acid is added to each well, and plates are incubated for 10 minutes at room temperature. After staining, unbound dye is removed by washing five times with 1% acetic acid and the plates are air dried. Bound stain is subsequently solubilized with 10 mM trizma base, and the absorbance is read on an automated plate reader at a wavelength of 515 nm. For suspension cells, the methodology is the same except that the assay is terminated by fixing settled cells at the bottom of the wells by gently adding 50 μl of 80% TCA (final concentration, 16% TCA). Using the seven absorbance measurements [time zero, (Tz), control growth, (C), and test growth in the presence of drug at the five concentration levels (Ti)], the percentage growth is calculated at each of the drug concentrations levels.
# (§4) Percentage growth inhibition is calculated as: [(Ti−Tz)/(C−Tz)]×100 for concentrations for which Ti>/=Tz (1) [(Ti−Tz)/Tz]×100 for concentrations for which Ti<Tz (2)
# (§5) Growth inhibition of 50% (GI50) is calculated from [(Ti−Tz)/(C−Tz)]×100=50 (3)
# (§6) which is the drug concentration resulting in a 50% reduction in the net protein increase (as measured by SRB staining) in control cells during the drug incubation.
# (§7) The drug concentration resulting in total growth inhibition (TGI) is calculated from Ti=Tz (4)
# (§8) The LC50 (concentration of drug resulting in a 50% reduction in the measured protein at the end of the drug treatment as compared to that at the beginning) indicating a net loss of cells following treatment is calculated from [(Ti−Tz)/Tz]×100=−50 (5)
# (§9) Values are calculated for each of these three parameters if the level of activity is reached; however, if the effect is not reached or is exceeded, the value for that parameter is expressed as greater or less than the maximum or minimum concentration tested.
# NCI-H460 = NCI-H460 (Non-Small Cell Lung)
# Procedure: as §1, §2, §3, §4, §5, §6, §7, §8, §9
# A498 = A498 (Renal)
# Procedure: as §1, §2, §3, §4, §5, §6, §7, §8, §9
# 786-0 = 786-0 (Renal)
# Procedure: as §1, §2, §3, §4, §5, §6, §7, §8, §9
# CAKI-1 = CAKI-1 (Renal)
# Procedure: as §1, §2, §3, §4, §5, §6, §7, §8, §9
# U251 = U251 (CNS)
# Procedure: as §1, §2, §3, §4, §5, §6, §7, §8, §9
# MCF7 = MCF7 (Breast)
# Procedure: as §1, §2, §3, §4, §5, §6, §7, §8, §9
# MDA-MB-468 = test system: MDA-MB-468
# Procedure: as §1, §2, §3, §4, §5, §6, §7, §8, §9
# SK-MEL-28 = SK-MEL-28 (Melanoma)
# Procedure: as §1, §2, §3, §4, §5, §6, §7, §8, §9
# HCC-2998 = HCC-2998 (Colon)
# Procedure: as §1, §2, §3, §4, §5, §6, §7, §8, §9
# NCI-H226 = NCI-H226 (Non-Small Cell Lung)
# Procedure: as §1, §2, §3, §4, §5, §6, §7, §8, §9
# IGROVI = IGROVI (Ovarian)
# Procedure: as §1, §2, §3, §4, §5, §6, §7, §8, §9
# OVCAR-5 = OVCAR-5 (Ovarian)
# Procedure: as §1, §2, §3, §4, §5, §6, §7, §8, §9
# SW-620 = SW-620 (Colon)
# Procedure: as §1, §2, §3, §4, §5, §6, §7, §8, §9
# HT29 = HT29 (Colon)
# Procedure: as §1, §2, §3, §4, §5, §6, §7, §8, §9
# TK-10 = TK-10 (Renal)
# Procedure: as §1, §2, §3, §4, §5, §6, §7, §8, §9
# OVCAR-8 = OVCAR-8 (Ovarian)
# Procedure: as §1, §2, §3, §4, §5, §6, §7, §8, §9
# [1] = Homo sapiens, read-out: LC50 (the source's name)
smiles,measurement,setting,value
"CCN(CC)C1CCN(C(C)c2cc(-c3ccccc3)nc3ccccc23)CC1.Cl.Cl (stereo not shown) [XIX-3, 2-phenyl-4-{1-[4-(N,N-diethylamino)piperidin-1-yl]-eth-1-yl}quinoline dihydrochloride]",GI50,SNB-75; Homo sapiens,12 µM
same,CC50,SNB-75; [1],55 µM
same,TGI,SNB-75,26 µM
same,Growth percent at 10 μM,SNB-75,+++ (cell growth 20 > % < 40)
same,GI50,NCI-H460; Homo sapiens,7 µM
same,CC50,NCI-H460; [1],54 µM
same,TGI,NCI-H460,22 µM
same,Growth percent at 10 μM,NCI-H460,+ (cell growth 60 > % < 80)
same,TGI,A498,20 µM
same,Growth percent at 10 μM,A498,++ (cell growth 40 > % < 60)
same,GI50,A498; Homo sapiens,5 µM
same,LC50,A498; Homo sapiens,54 µM
same,TGI,786-0,23 µM
same,Growth percent at 10 μM,786-0,++ (cell growth 40 > % < 60)
same,GI50,786-0; Homo sapiens,8 µM
same,CC50,786-0; [1],54 µM
same,TGI,CAKI-1,28 µM
same,Growth percent at 10 μM,CAKI-1,+ (cell growth 60 > % < 80)
same,GI50,CAKI-1; Homo sapiens,13 µM
same,CC50,CAKI-1; [1],58 µM
same,GI50,"U251; Homo sapiens, U-251",6 µM
same,CC50,"U251; Homo sapiens, U-251, read-out: LC50 (the source's name)",49 µM
same,TGI,U251,20 µM
same,Growth percent at 10 μM,U251,+++ (cell growth 20 > % < 40)
same,GI50,MCF7; Homo sapiens,8 µM
same,LC50 (50% lethal concentration),MCF7; Homo sapiens,56 µM
same,TGI,MCF7,22 µM
same,Growth percent at 10 μM,MCF7,++ (cell growth 40 > % < 60)
same,CC50,"MDA-MB-468; Homo sapiens, MDA-MB-468, read-out: LC50",38 µM
same,GI50,"MDA-MB-468; Homo sapiens, MDA-MB-468 (Breast)",3 µM
same,TGI,MDA-MB-468; MDA-MB-468 (Breast),10 µM
same,Growth percent at 10 μM,MDA-MB-468; MDA-MB-468 (Breast),+++ (cell growth 20 > % < 40)
same,GI50,SK-MEL-28; Homo sapiens,2 µM
same,CC50,SK-MEL-28; [1],6 µM
same,TGI,SK-MEL-28,3 µM
same,Growth percent at 10 μM,SK-MEL-28,××× (cell growth −40 > % < −60)
same,TGI,HCC-2998,13 µM
same,Growth percent at 10 μM,HCC-2998,++ (cell growth 40 > % < 60)
same,GI50,HCC-2998; Homo sapiens,4 µM
same,CC50,HCC-2998; [1],44 µM
same,GI50,NCI-H226; Homo sapiens,19 µM
same,CC50,NCI-H226; [1],74 µM
same,TGI,NCI-H226,38 µM
same,Growth percent at 10 μM,NCI-H226,− (cell growth % > 80)
same,GI50,IGROVI; Homo sapiens,5 µM
same,CC50,IGROVI; [1],63 µM
same,TGI,IGROVI,21 µM
same,Growth percent at 10 μM,IGROVI,++ (cell growth 40 > % < 60)
same,GI50,OVCAR-5; Homo sapiens,13 µM
same,CC50,OVCAR-5; [1],58 µM
same,TGI,OVCAR-5,28 µM
same,Growth percent at 10 μM,OVCAR-5,+ (cell growth 60 > % < 80)
same,GI50,SW-620; Homo sapiens,4 µM
same,CC50,SW-620; [1],45 µM
same,TGI,SW-620,17 µM
same,Growth percent at 10 μM,SW-620,++ (cell growth 40 > % < 60)
same,TGI,HT29,7 µM
same,Growth percent at 10 μM,HT29,++++ (cell growth % < 20)
same,GI50,"HT29; Homo sapiens, HT-29",2 µM
same,CC50,"HT29; Homo sapiens, HT-29, read-out: LC50 (the source's name)",32 µM
same,GI50,TK-10; Homo sapiens,13 µM
same,LC50 (concentration causing 50% net cell kill),TK-10; Homo sapiens,26 µM
same,TGI,TK-10,26 µM
same,Growth percent at 10 μM,TK-10,− (cell growth % > 80)
same,GI50,OVCAR-8; Homo sapiens,14 µM
same,CC50,OVCAR-8; [1],62 µM
same,TGI,OVCAR-8,30 µM
same,Growth percent at 10 μM,OVCAR-8,+ (cell growth 60 > % < 80)
"CC(C)(C)NC1CCN(c2cc(-c3ccc(Cl)cc3)nc3ccccc23)CC1.Cl.Cl [XII-4, 2-(4-chloro-phenyl)-4-(4-N-tert-butylamino-piperidin-1-yl)quinoline dihydrochloride]",Growth percent at 10 μM,SNB-75,++ (cell growth 40 > % < 60)
same,Growth percent at 10 μM,NCI-H460,++ (cell growth 40 > % < 60)
same,Growth percent at 10 μM,A498,+++ (cell growth 20 > % < 40)
same,Growth percent at 10 μM,786-0,++ (cell growth 40 > % < 60)
same,Growth percent at 10 μM,CAKI-1,+++ (cell growth 20 > % < 40)
same,Growth percent at 10 μM,U251,++ (cell growth 40 > % < 60)
same,Growth percent at 10 μM,MCF7,++ (cell growth 40 > % < 60)
same,Growth percent at 10 μM,MDA-MB-468; MDA-MB-468 (Breast),×× (cell growth −20 < % > −40)
same,Growth percent at 10 μM,SK-MEL-28,×××× (cell growth −60 < % > −80)
same,Growth percent at 10 μM,HCC-2998,++++ (cell growth 0 > % < 20)
same,Growth percent at 10 μM,NCI-H226,− (cell growth % > 80)
same,Growth percent at 10 μM,IGROVI,++ (cell growth 40 > % < 60)
same,Growth percent at 10 μM,OVCAR-5,++ (cell growth 40 > % < 60)
same,Growth percent at 10 μM,SW-620,++++ (cell growth 0 > % < 20)
same,Growth percent at 10 μM,HT29,× (cell growth 0 < % > −20)
same,Growth percent at 10 μM,TK-10,− (cell growth % > 80)
same,Growth percent at 10 μM,OVCAR-8,− (cell growth % > 80)
